# Data reported in patent US9850225B2, “Compounds useful as immunomodulators” (BRISTOL-MYERS SQUIBB COMPANY, priority 2014, dated 2017).
# pIC50: −log10 of the molar value.
# Biological target: PD-1/PD-L1 interaction (PD-1-Ig / PD-L1-His) (Homo sapiens (Human), UniProt Q9NZQ7)
# Test: PD-1/PD-L1 Homogenous Time-Resolved Fluorescence (HTRF) binding assay
# Conditions: PD-1/PD-L1 HTRF binding assay; numeric value; read-out: Range or IC50
# Method in brief: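 Human PD-L1-His (10 nM final) was pre-incubated with inhibitor for 15 min, then PD-1-Ig (20 nM final) was added for a further 15 min in dPBS with 0.1% BSA and 0.05% Tween-20. Binding was detected by HTRF using Eu-cryptate anti-Ig (1 nM) and APC anti-His (20 nM).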
# Chain of PD-1/PD-L1 interaction (PD-1-Ig / PD-L1-His) (Q9NZQ7 other isoform, or with tags, fused parts or gaps): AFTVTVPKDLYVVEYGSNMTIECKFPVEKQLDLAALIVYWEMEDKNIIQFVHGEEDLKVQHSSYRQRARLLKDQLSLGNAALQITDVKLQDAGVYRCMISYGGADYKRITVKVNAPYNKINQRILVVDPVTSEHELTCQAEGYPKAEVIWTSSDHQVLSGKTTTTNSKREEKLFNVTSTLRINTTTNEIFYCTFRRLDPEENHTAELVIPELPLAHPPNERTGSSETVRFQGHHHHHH
row,Structure (SMILES),pIC50
1,"Cc1c(COc2ccc(CN[C@H](CO)C(=O)O)c(OCc3cccc(C#N)c3)c2)cccc1-c1ccccc1 [Example 1016, (R)-2-((2-((3-cyanobenzyl)oxy)-4-((2-methyl-[1,1′-biphenyl]-3-yl)methoxy)benzyl)amino)-3-hydroxypropanoic acid]",8.34
2,"CC(=O)NCCNCc1ccc(OCc2cccc(-c3ccccc3)c2C)cc1OCc1ccccc1[N+](=O)[O-] [Example 1057, N-(2-((4-((2-methyl-[1,1′-biphenyl]-3-yl)methoxy)-2-((2-nitrobenzyl)oxy)benzyl)amino)ethyl)acetamide]",6.01
3,"CC(=O)NCCNCc1ccc(OCc2cccc(-c3ccccc3)c2C)cc1OCc1ccc(F)c(C)c1 [Example 1108, N-(2-((2-((4-fluoro-3-methylbenzyl)oxy)-4-((2-methyl-[1,1′-biphenyl]-3-yl)methoxy)benzyl)amino)ethyl)acetamide]",6.20

# Same assay, conditions: PD-1/PD-L1 HTRF binding assay; value given as range class; read-out: Range or IC50
row,Structure (SMILES),pIC50
1,"Cc1c(COc2cc(OCc3cncc(C#N)c3)c(CN3CCCC[C@H]3C(=O)NS(=O)(=O)C3CC3)cc2Cl)cccc1-c1ccc2c(c1)OCCO2 [Example 1259, (S)-1-(5-chloro-2-((5-cyanopyridin-3-yl)methoxy)-4-((3-(2,3-dihydrobenzo[b][1,4]dioxin-6-yl)-2-methylbenzyl)oxy)benzyl)-N-(cyclopropylsulfonyl)piperidine-2-carboxamide]",8.00 to 9.22
2,"Cc1c(COc2cc(OCc3cccc(C#N)c3)c(CNC3(C(=O)O)CC3)cc2Cl)cccc1-c1ccc2c(c1)OCCO2 [Example 1177, 1-((5-chloro-2-((3-cyanobenzyl)oxy)-4-((3-(2,3-dihydrobenzo[b][1,4]dioxin-6-yl)-2-methylbenzyl)oxy)benzyl)amino)cyclopropanecarboxylic acid]",8.00 to 9.22
3,"Cc1c(COc2cc(OCc3cncc(C#N)c3)c(CNCCO)cc2Br)cccc1-c1ccc2c(c1)OCCO2 [Example 1322, 5-((4-bromo-5-(3-(2,3-dihydrobenzo[b][1,4]dioxin-6-yl)-2-methylbenzyloxy)-2-((2-hydroxyethylamino)methyl)phenoxy)methyl)nicotinonitrile]",8.00 to 9.22
4,"Cc1cc(CNC[C@@H](O)CC(=O)O)c(OCc2cccnc2)cc1OCc1cccc(-c2ccc3c(c2)OCCO3)c1C [Example 1278, (S)-4-((4-((3-(2,3-dihydrobenzo[b][1,4]dioxin-6-yl)-2-methylbenzyl)oxy)-5-methyl-2-(pyridin-3-ylmethoxy)benzyl)amino)-3-hydroxybutanoic acid]",8.00 to 9.22
5,"Cc1c(COc2cc(OCc3cccc(C#N)c3)c(CN[C@@H](C(=O)O)c3ccc(O)cc3)cc2Cl)cccc1-c1ccc2c(c1)OCCO2 [Example 1161, (R)-2-((5-chloro-2-((3-cyanobenzyl)oxy)-4-((3-(2,3-dihydrobenzo[b][1,4]dioxin-6-yl)-2-methylbenzyl)oxy)benzyl)amino)-2-(4-hydroxyphenyl)acetic acid]",7.00 to 8.00
6,"Cc1cc(CN[C@@](C)(CO)C(=O)O)c(OCc2cncc(C#N)c2)cc1OCc1cccc(-c2ccc3c(c2)OCCO3)c1C [Example 1286, (S)-2-(2-((5-cyanopyridin-3-yl)methoxy)-4-(3-(2,3-dihydrobenzo[b][1,4]dioxin-6-yl)-2-methylbenzyloxy)-5-methylbenzylamino)-3-hydroxy-2-methylpropanoic acid]",8.00 to 9.22
7,"COc1cc(F)cc(COc2cc(OCc3cccc(-c4ccccc4)c3C)ccc2CNCCNC(C)=O)c1 [Example 1096, N-(2-((2-((3-fluoro-5-methoxybenzyl)oxy)-4-((2-methyl-[1,1′-biphenyl]-3-yl)methoxy)benzyl)amino)ethyl)acetamide]",4.70 to 7.00
8,"Cc1c(COc2cc(OCc3cccc(C#N)c3)c(CNCCO)cc2Cl)cccc1-c1ccc2c(c1)OCCO2 [Example 1170, 3-((4-chloro-5-((3-(2,3-dihydrobenzo[b][1,4]dioxin-6-yl)-2-methylbenzyl)oxy)-2-(((2-hydroxyethyl)amino)methyl)phenoxy)methyl)benzonitrile]",8.00 to 9.22
9,"Cc1cc(CN2CCCC[C@H]2C(=O)O)c(OCc2cccnc2)cc1OCc1cccc(-c2ccc3c(c2)OCCO3)c1C [Example 1279, (S)-1-(4-((3-(2,3-dihydrobenzo[b][1,4]dioxin-6-yl)-2-methylbenzyl)oxy)-5-methyl-2-(pyridin-3-ylmethoxy)benzyl)piperidine-2-carboxylic acid]",8.00 to 9.22
10,"Cc1c(COc2cc(OCc3cccc(C#N)c3)c(CN3CC[C@H](O)[C@H]3C(=O)O)cc2Cl)cccc1-c1ccc2c(c1)OCCO2 [Example 1219, (2S,3S)-1-(5-chloro-2-((3-cyanobenzyl)oxy)-4-((3-(2,3-dihydrobenzo[b][1,4]dioxin-6-yl)-2-methylbenzyl)oxy)benzyl)-3-hydroxypyrrolidine-2-carboxylic acid]",8.00 to 9.22
11,"CC(=O)NCCNCc1ccc(OCc2cccc(-c3ccccc3)c2C)cc1OCc1cc(F)cc(F)c1 [Example 1062, N-(2-((2-((3,5-difluorobenzyl)oxy)-4-((2-methyl-[1,1′-biphenyl]-3-yl)methoxy)benzyl)amino)ethyl)acetamide]",4.70 to 7.00
12,"Cc1c(COc2cc(OCc3ccnc(C(=O)N(C)C)c3)c(CN[C@@](C)(CO)C(=O)O)cc2Cl)cccc1-c1ccc2c(c1)OCCO2 [Example 3018, (S)-2-((5-chloro-4-((3-(2,3-dihydrobenzo[b][1,4]dioxin-6-yl)-2-methylbenzyl)oxy)-2-((2-(dimethylcarbamoyl)pyridin-4-yl)methoxy)benzyl)amino)-3-hydroxy-2-methylpropanoic acid]",8.00 to 9.22
13,"Cc1c(COc2cc(OCc3cccc(C#N)c3)c(CNCC(O)CN3CCOCC3)cc2Cl)cccc1-c1ccc2c(c1)OCCO2 (stereo not shown) [Example 1212, 3-((4-chloro-5-((3-(2,3-dihydrobenzo[b][1,4]dioxin-6-yl)-2-methylbenzyl)oxy)-2-(((2-hydroxy-3-morpholinopropyl)amino)methyl)phenoxy)methyl)benzonitrile]",8.00 to 9.22
14,"Cc1c(COc2ccc(CNC[C@@H](O)CC(=O)O)c(OCc3cncc(C#N)c3)c2)cccc1-c1ccccc1 [Example 1328, (S)-4-((2-((5-cyanopyridin-3-yl)methoxy)-4-((2-methyl-[1,1′-biphenyl]-3-yl)methoxy)benzyl)amino)-3-hydroxybutanoic acid]",8.00 to 9.22
15,"CC(=O)NCCNCc1ccc(OCc2cccc(-c3ccccc3)c2C)c(Cl)c1OCc1cccc(C#N)c1 [Example 1234, N-(2-(3-chloro-2-(3-cyanobenzyloxy)-4-((2-methylbiphenyl-3-yl)methoxy)benzylamino)ethyl)acetamide]",4.70 to 7.00
16,"Cc1c(COc2cc(OCc3cncc(C#N)c3)c(CN3CCCC[C@@H]3C(=O)O)cc2Br)cccc1-c1ccc2c(c1)OCCO2 [Example 1323, (R)-1-(5-bromo-2-((5-cyanopyridin-3-yl)methoxy)-4-(3-(2,3-dihydrobenzo[b][1,4]dioxin-6-yl)-2-methylbenzyloxy)benzyl)piperidine-2-carboxylic acid]",8.00 to 9.22
17,"COC(=O)CCCOc1cc(OCc2cccc(-c3ccccc3)c2C)ccc1CNCCNC(C)=O [Example 1036, methyl 4-(2-(((2-acetamidoethyl)amino)methyl)-5-((2-methyl-[1,1′-biphenyl]-3-yl)methoxy)phenoxy)butanoate]",4.70 to 7.00
18,"CC(=O)NCCNCc1cc(C)c(OCc2cccc(-c3ccc4c(c3)OCCO4)c2C)cc1OCc1ccc(F)c(C#N)c1 [Example 1271, N-(2-((2-((3-cyano-4-fluorobenzyl)oxy)-4-((3-(2,3-dihydrobenzo[b][1,4]dioxin-6-yl)-2-methylbenzyl)oxy)-5-methylbenzyl)amino)ethyl)acetamide]",8.00 to 9.22
19,"CC(=O)NCCNCc1ccc(OCc2cccc(-c3ccccc3)c2C)cc1OCc1cccc(F)c1F [Example 1071, N-(2-((2-((2,3-difluorobenzyl)oxy)-4-((2-methyl-[1,1′-biphenyl]-3-yl)methoxy)benzyl)amino)ethyl)acetamide]",4.70 to 7.00
20,"CC(=O)Nc1cc(COc2cc(OCc3cccc(-c4ccc5c(c4)OCCO5)c3C)c(Cl)cc2CN[C@@](C)(CO)C(=O)O)ccn1 [Example 3011, (S)-2-((2-((2-acetamidopyridin-4-yl)methoxy)-5-chloro-4-((3-(2,3-dihydrobenzo[b][1,4]dioxin-6-yl)-2-methylbenzyl)oxy)benzyl)amino)-3-hydroxy-2-methylpropanoic acid]",8.00 to 9.22
21,"CC(=O)NCCNCc1ccc(OCc2cccc(-c3ccccc3)c2C)cc1OCc1nccc2ccccc12 [Example 1118, N-(2-((2-(isoquinolin-1-ylmethoxy)-4-((2-methyl-[1,1′-biphenyl]-3-yl)methoxy)benzyl)amino)ethyl)acetamide]",4.70 to 7.00
22,"Cc1c(COc2ccc(CN3CCCC[C@H]3C(=O)O)c(OCc3cccc(C#N)c3)c2Cl)cccc1-c1ccccc1 [Example 1233, (S)-1-(3-chloro-2-(3-cyanobenzyloxy)-4-((2-methylbiphenyl-3-yl)methoxy)benzyl)piperidine-2-carboxylic acid]",4.70 to 7.00
23,"CC(=O)NCCNCc1ccc(OCc2cccc(-c3ccccc3)c2C)cc1OCc1ccc(C#N)cc1 [Example 1029, N-(2-((2-((4-cyanobenzyl)oxy)-4-((2-methyl-[1,1′-biphenyl]-3-yl)methoxy)benzyl)amino)ethyl)acetamide]",4.70 to 7.00
24,"Cc1c(COc2cc(OCc3cncc(C#N)c3)c(CN[C@@H](CC(N)=O)C(=O)O)cc2Cl)cccc1-c1ccc2c(c1)OCCO2 [Example 3022, (S)-4-amino-2-((5-chloro-2-((5-cyanopyridin-3-yl)methoxy)-4-((3-(2,3-dihydrobenzo[b][1,4]dioxin-6-yl)-2-methylbenzyl)oxy)benzyl)amino)-4-oxobutanoic acid]",8.00 to 9.22
25,"N#Cc1cccc(COc2cc(OCc3cccc(-c4ccc5c(c4)OCCO5)c3C#N)c(Br)cc2CN[C@@H](CO)C(=O)O)c1 [Example 1312, (S)-2-((5-bromo-4-((2-cyano-3-(2,3-dihydrobenzo[b][1,4]dioxin-6-yl)benzyl)oxy)-2-((3-cyanobenzyl)oxy)benzyl)amino)-3-hydroxypropanoic acid]",8.00 to 9.22
